Source: the CheMixHub viscosity set

Test: xn = mol fraction of the nth substance listed

O=C1CCCCC1 + CCCCOC(C)=O
viscosity [mPa·s], 101 kPa
Details | 298.15 K | 303.15 K | 308.15 K | 313.15 K
x1 = 0.1162 | 0.689 | – | – | –
x1 = 0.2283 | 0.732 | – | – | –
x1 = 0.3365 | 0.788 | – | – | –
x1 = 0.441 | 0.871 | – | – | –
x1 = 0.542 | 0.976 | – | – | –
x1 = 0.6397 | 1.109 | – | – | –
x1 = 0.7341 | 1.281 | – | – | –
x1 = 0.8256 | 1.478 | – | – | –
x1 = 0.9142 | 1.731 | – | – | –
x2 = 0.0814 | 1.757 | 1.589 | 1.445 | 1.321
x2 = 0.165 | 1.536 | 1.393 | 1.274 | 1.166
x2 = 0.2509 | 1.362 | 1.235 | 1.137 | 1.045
x2 = 0.3438 | 1.214 | 1.101 | 1.016 | 0.934
x2 = 0.4391 | 1.099 | 0.999 | 0.922 | 0.852
x2 = 0.5412 | 0.995 | 0.904 | 0.838 | 0.775
x2 = 0.6451 | 0.914 | 0.83 | 0.774 | 0.715
x2 = 0.7589 | 0.836 | 0.763 | 0.711 | 0.66
x2 = 0.8707 | 0.767 | 0.7 | 0.658 | 0.61

CC(=O)CC(C)C + Cc1ccccc1
298.15 K, 101 kPa
Details | viscosity [mPa·s]
x1 = 0.1094 | 0.545
x1 = 0.207 | 0.541
x1 = 0.3183 | 0.539
x1 = 0.4196 | 0.538
x1 = 0.5357 | 0.537
x1 = 0.6441 | 0.544
x1 = 0.7653 | 0.539
x1 = 0.8774 | 0.541

CCC(C)N (stereo not given) + COCCO
308.15 K, 101 kPa
Details | viscosity [mPa·s]
x2 = 0.1256 | 0.5105
x2 = 0.2443 | 0.6223
x2 = 0.3566 | 0.7355
x2 = 0.463 | 0.8498
x2 = 0.564 | 0.9507
x2 = 0.6599 | 1.015
x2 = 0.7511 | 1.066
x2 = 0.838 | 1.121
x2 = 0.9209 | 1.175

CCCCCCO + CN1CCCC1=O
viscosity [mPa·s], 100 kPa
Details | x1 = 0.1042 | x1 = 0.2 | x1 = 0.302 | x1 = 0.3995 | x1 = 0.4998 | x1 = 0.5996 | x1 = 0.6992 | x1 = 0.7985 | x1 = 0.8981 | x1 = 0.9469
293.15 K | 1.95 | 2.073 | 2.222 | 2.385 | 2.581 | 2.824 | 3.148 | 3.595 | 4.278 | 4.729
298.15 K | 1.786 | 1.894 | 2.02 | 2.157 | 2.321 | 2.521 | 2.791 | 3.158 | 3.711 | 4.048
303.15 K | 1.645 | 1.739 | 1.845 | 1.961 | 2.099 | 2.266 | 2.49 | 2.791 | 3.24 | 3.53
308.15 K | 1.522 | 1.603 | 1.693 | 1.791 | 1.907 | 2.046 | 2.233 | 2.481 | 2.844 | 3.083
313.15 K | 1.412 | 1.483 | 1.56 | 1.643 | 1.741 | 1.857 | 2.012 | 2.217 | 2.51 | 2.708
318.15 K | 1.315 | 1.377 | 1.442 | 1.513 | 1.595 | 1.692 | 1.822 | 1.991 | 2.226 | 2.387

CC(C)CC(C)(C)C + Cc1ccccc1
101 kPa
Details | viscosity [mPa·s]
298.15 K, x1 = 0.1138 | 0.519
298.15 K, x1 = 0.2032 | 0.498
298.15 K, x1 = 0.2796 | 0.485
298.15 K, x1 = 0.3319 | 0.477
298.15 K, x1 = 0.4044 | 0.47
298.15 K, x1 = 0.4365 | 0.467
298.15 K, x1 = 0.4983 | 0.464
298.15 K, x1 = 0.618 | 0.459
298.15 K, x1 = 0.6934 | 0.458
298.15 K, x1 = 0.7315 | 0.461
298.15 K, x1 = 0.8036 | 0.463
298.15 K, x1 = 0.8966 | 0.467
298.15 K, x1 = 0.9292 | 0.47
298.15 K, x1 = 0.9743 | 0.474
308.15 K, x1 = 0.0644 | 0.4877
308.15 K, x1 = 0.1217 | 0.4728
308.15 K, x1 = 0.1933 | 0.4593
308.15 K, x1 = 0.2715 | 0.4474
308.15 K, x1 = 0.3689 | 0.4362
308.15 K, x1 = 0.4483 | 0.4305
308.15 K, x1 = 0.5805 | 0.4258
308.15 K, x1 = 0.6997 | 0.425
308.15 K, x1 = 0.8297 | 0.4265

O=C1CCCCC1 + CCCCO
101 kPa
Details | viscosity [mPa·s]
298.15 K, x1 = 0.0997 | 2.13
298.15 K, x1 = 0.2002 | 1.87
298.15 K, x1 = 0.3022 | 1.73
298.15 K, x1 = 0.3878 | 1.66
298.15 K, x1 = 0.5036 | 1.63
298.15 K, x1 = 0.6016 | 1.64
298.15 K, x1 = 0.6966 | 1.67
298.15 K, x1 = 0.7992 | 1.74
298.15 K, x1 = 0.8984 | 1.82
303.15 K, x1 = 0.1001 | 1.855
303.15 K, x1 = 0.2591 | 1.662
303.15 K, x1 = 0.4202 | 1.556
303.15 K, x1 = 0.5804 | 1.517
303.15 K, x1 = 0.7265 | 1.534
303.15 K, x1 = 0.8935 | 1.622
